In US6589504B1, “Compounds and methods for diagnosing and treating amyloid-related conditions” (Pharmacia & Upjohn Company, priority 2000, dated 2003):
Like-named read-outs stand apart in the source and are kept apart here.

Legend:
[1] = In vivo determination of plasma and brain exposure (AUC) after oral dosing; details: normal mice; for Kp: brain/plasma
Experimental: Plasma and brain exposure were assessed by measuring area under the curve (AUC) after oral dosing of normal mice.
The brain to plasma ratios were calculated and reported below.
The terminal half-life of compound in the brain was measured to determine the dosing frequency for 10-day tolerance studies. For the three highest doses, brain terminal half-life ranged from 5-7 h.

[2] = biological target: T1, human β-amyloid containing plaques (Homo sapiens, UniProt P05067); assay: Determination of in vivo brain distribution (fluorescence of brain sections)
T1 construct: from tissue; host or cells: brain of transgenic (Tg) mice carrying the human β-APP gene
Experimental: Transgenic mice, designated “Tg”, were obtained. The transgenic mice carry the human gene for β-APP, a gene associated with β-amyloid deposition in the brain. The mice were treated with.the quinolinehydrazone compound, 4-methyl-7-methoxy-2-(4-quinolylmethylhydrazino)quinoline. Dosing was administered either intravenously or orally. The intravenous dose was administered as a single injection (50 μmol/kg). Orally-treated animals received a single dose (400 μmol/kg) via oral gavage, or were dosed twice-a-day for 10 days (400 μmol/kg/dose/day).
Age-matched normal mice served as a negative control, i.e. no plaque formation in the animals was indicated. The control mice were treated in the same manner as the transgenic mice, but with placebo.
In addition, a group of age-matched Tg mice were treated with the carrier vehicle only.
All animals were sacrificed beginning 1, 3 and 10 h after the final dose. Fresh brains of the animals were removed, bisected, and positioned in […] (OCT). The brains were immersed into 2-methylbutane, pre-cooled to […] with liquid nitrogen. The brains were cut into 20 μm thick sections at a temperature of −20° C. Brain sections were collected onto poly-L-lysine-coated glass microscopic slide and treated with (1 drop) of 75%, by volume (v/v), glycerin in […](PBS). […]
The section adjacent to each compound-treated section of the brain was stained with thioflavin S (Sigma Chemicals, Milwaukee, Wis., U.S.A.). Sections stained with thioflavin S served as a positive control for identifying plaque. The distribution of compound-associated fluorescence was compared with the distribution of thioflavin S-stained section in order to confirm whether the compound bound plaque.
All sections were examined 1 h later to assess artifactual drug diffusion within thawed sections over time.

[3] = tested on: primary neuronal model of FAS-induced lipid peroxidation toxicity; assay: In vitro antioxidant effect, ferrous ammonium sulfate (FAS)-induced oxidative toxicity model; format: cell-based
Experimental: The 4-methyl-7-methoxy-2-(4-quinolylmethylene-hydrazino)quinoline was tested in a primary neuronal model of FAS-induced lipid peroxidation toxicity. The compound was treated in two manners. In one manner, the compound was solubilized as 100×stock in 100% dimethyl sulfoxide (DMSO) to afford panel A. In another manner, the compound was solubilized in aqueous Locke's buffer to give panel B.

[4] = biological target: T2, amyloid plaque in brains of Tg mice (Homo sapiens, UniProt P05067); assay: Postmortem staining of amyloid plaque in brain sections
T2 construct: from tissue; host or cells: frozen, methanol-fixed brain sections of 12-14 month-old Tg mice
Experimental: Brains from 12-14 month-old Tg mice were frozen and sectioned at −20° C. Each section was fixed in ice cold methanol (Aldrich Chemical Co., Milwaukee, Wis.) for 10 minutes, rinsed in buffer and incubated in 4-methyl-7-methoxy-2-(4-quinolylmethylenehydrazino)quinoline for 90 minutes at room temperature. […] Fluorescence intensity in Tg mouse amyloid decreased with drug concentration. […] The […] mouse brains were confirmed to be plaque-free.

[5] = Dose-dependent pharmacokinetics: plasma and brain Cmax after oral dosing; format: in vivo; details: normal mice, 400 to 3,200 μmol/kg
Experimental: Dose-proportionality characteristics were assessed by measuring the maximum concentration (Cmax) for plasma and brain concentrations after oral dosing of normal mice. […] Plasma and brain concentrations were measured by HPLC at 0.5 to 24 hours.

[6] = tested on: Neuronal cells; assay: In vitro antioxidant effect, neuronal cytoprotection model; format: cell-based; details: 1, 3, 10, 30 and 100 μM, with and without ferrous ammonium sulfate, 3 hours, LC/MS
Experimental: The 4-methyl-7-methoxy-2-(4-quinolylmethylene-hydrazino)quinoline was dissolved in 100×stock of aqueous Locke's buffer to obtain concentrations of 1, 3, 10, 30, and 100 μM solution. Neuronal cells were incubated in each compound solution with and without ferrous ammonium sulfate (200 μm) for 3 hours. High concentration supernatant was obtained from each sample. The samples were analyzed under liquid chromatography/mass spectrometry (LC/MS).

[7] = tested on: amyloid-like proteins with a beta-pleated sheet conformation; details: in vitro; cited from earlier work
[8] = 30 and 100 μM, 1% DMSO experiments (panel A)

T1 sequence (P05067 672-713 limits assumed): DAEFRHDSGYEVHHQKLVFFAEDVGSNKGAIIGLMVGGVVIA
T2 sequence (P05067 672-713 limits assumed): as above

Molecule `COc1ccc2c(C)cc(NN=Cc3ccnc4ccccc34)nc2c1` [4-methyl-7-methoxy-2-(4-quinolylmethylenehydrazino)quinoline] has a Kp ([1]; mouse, oral, dose 51 μmole/kg, read-out: B/P Ratio AUC) of 5.3, a Kp ([1]; mouse, oral, dose 208 μmole/kg, read-out: B/P Ratio AUC) of 3.2 and a Kp ([1]; mouse, oral, dose 421 μmole/kg, read-out: B/P Ratio AUC) of 2.5. The Kp ([1]; mouse, oral, dose 831 μmole/kg, read-out: B/P Ratio AUC) was 5.7, the Kp ([1]; mouse, oral, dose 1472 μmole/kg, read-out: B/P Ratio AUC) was 5.7 and the Kp ([1]; mouse, oral, dose 3024 μmole/kg, read-out: B/P Ratio AUC) was 7.3. The Kp ([1]; mouse, oral, over the dose range tested, read-out: brain levels relative to plasma levels, average) was 5, the half-life ([1]; mouse, brain, oral, three highest doses, read-out: brain terminal half-life) was 5 to 7 h and the “penetration to the brain tissue” value ([1]; oral) was “good penetration of the compound to the brain tissue”. For the same molecule, the “plasma exposure, saturation” value ([1]; oral, 3,024 μmol/kg) was “evidence of saturation”, the “brain exposure, dose dependence” value ([1]; oral, 421 to 1,472 μmol/kg) was “increased more rapidly” and the “plasma exposure, dose proportionality” value ([1]; oral, 421 to 1,472 μmol/kg) was “increased proportionally”. The “plaque burden shown in brain sections compared with thioflavin S stained sections” value ([2]; Tg mice receiving the compound) was “marked plaque burden”, the “drug-related fluorescence in brain sections in areas of plaque formation” value ([2]; Tg mice, i.v. 50 μmol/kg or oral 400 μmol/kg, λex 365 nm, λem 400 nm) was “intense drug-related fluorescence” and the “binding to plaques in vivo” value ([2]; Tg mice, i.v. or oral dosing) was “preferentially binds to human β-amyloid containing plaques”. For the same molecule, the brain penetration ([2]; Tg mice, i.v. or oral dosing) was “brain penetrable”, the “cell morphology, brightfield photographs” value ([3]; 10 μM + FAS cells versus control cells) was “no different than cells treated with no drug and no FAS” and the “neuronal protection against FAS” value ([3]; 10 μM compound, 200 μM FAS, 3 hours, 14C-AIB uptake or LDH release) was “close to or complete neuronal protection”. For the same molecule, the “drug toxicity to neuronal cells” value ([3]; 30 μM, aqueous preparation (panel B)) was “much less drug toxicity”, the concentration range of concentration-dependent inhibition of FAS toxicity ([3]; 200 μM FAS, 3 hours, 14C-AIB uptake or LDH release) was 0.3 to 10 µM and the “drug toxicity to neuronal cells” value [3, 8] was “inherent drug toxicity”. The “neuronal protection against FAS” value [3, 8] was “no neuronal protection”, the “neuronal protection against FAS” value ([3]; 30 and 100 μM, aqueous preparation (panel B)) was “considerable neuronal protection” and the “localization of compound fluorescence, confirmed by thioflavin S staining of adjacent sections” value ([4]; Tg mouse brain sections) was “does localize in amyloid plaques”. For the same molecule, the “staining in brains of transgene-free mice” value ([4]; brain sections of transgene-free mice) was “not in brains of transgene-free mice”, the “Cmax for brain, dose proportionality” value [5] was “increases proportionally” and the “Cmax for plasma, dose proportionality” value [5] was “increases proportionally”. The antioxidant effect [6] was “demonstrated antioxidant properties”.

In the case of `Nc1c(N=Nc2ccc(-c3ccc(N=Nc4cc(S(=O)(=O)[O-])c5ccccc5c4N)cc3)cc2)cc(S(=O)(=O)[O-])c2ccccc12.[Na+].[Na+]` [Congo red, 3,3′-[[1,1′-biphenyl]-4,4′-diylbis(azo)]bis[4-amino-1-naphthalenesulfonic acid] disodium salt], the “binding to amyloid-like proteins” value [7] is listed as “demonstrated binding”.
